According to ChEMBL document CHEMBL5154672, “Design and synthesis of HDAC inhibitors to enhance the therapeutic effect of diffuse large B-cell lymphoma by improving metabolic stability and pharmacokinetic characteristics” (Eur J Med Chem, 2022):
In brackets after ≈: the same amount, converted by molar mass.

Legend:
[1] = Metabolic stability in monkey liver microsomes assessed as half life measured for 75 to 130 mins by LC-MS/MS analysis; format: ADME, Macaca fascicularis, Microsome; conditions: cynomolgus monkey, time 75-130 min
[2] = Aqueous solubility of the compound; format: physicochemical; conditions: aqueous medium
NCI-H441 = experiment: Antiproliferative activity against human NCI-H441 cells incubated for 72 hrs by luminescence assay; format: functional, cell-based; conditions: NCI-H441, 72 h
[3] = Metabolic stability in human liver microsomes assessed as intrinsic clearance measured for 75 to 130 mins by LC-MS/MS analysis; format: ADME, Microsome; conditions: liver microsomes, time 75-130 min, read-out: CLH
786-0 = experiment: Antiproliferative activity against human 786-O cells incubated for 72 hrs by luminescence assay; format: functional, cell-based; conditions: 786-0, 72 h
[4] = Metabolic stability in dog liver microsomes assessed as intrinsic clearance measured for 75 to 130 mins by LC-MS/MS analysis; format: ADME, Canis lupus familiaris, Microsome; conditions: time 75-130 min, read-out: CLH
CCRF-CEM = experiment: Antiproliferative activity against human CCRF-CEM cells incubated for 72 hrs by luminescence assay; format: functional, cell-based
[5] = Cmax in CB.17 SCID mouse xenografted with human TMD8 cells at 100 mg/kg, po measured upto 24 hrs by LC-MS/MS analysis; format: ADME, organism-based; set-up: time < 24 hrs, dose 100 mg/kg, route po; conditions: in vivo
HT-29 = experiment: Antiproliferative activity against human HT-29 cells incubated for 72 hrs by luminescence assay; format: functional, cell-based; conditions: HT-29, 72 h
[6] = Cmax in ICR mouse at 25 mg/kg, po measured upto 24 hrs by LC-MS/MS analysis; format: ADME, organism-based; set-up: time < 24 hrs, dose 25 mg/kg, route po; conditions: in vivo
[7] = MRT(0 to infinity) in CB.17 SCID mouse xenografted with human TMD8 cells at 50 mg/kg, po measured upto 24 hrs by LC-MS/MS analysis; format: ADME, organism-based; conditions: in vivo
[8] = MRT(0 to infinity) in CB.17 SCID mouse xenografted with human TMD8 cells at 100 mg/kg, po measured upto 24 hrs by LC-MS/MS analysis; format: ADME, organism-based; conditions: in vivo
[9] = MRT(0 to infinity) in CB.17 SCID mouse xenografted with human TMD8 cells at 25 mg/kg, po measured upto 24 hrs by LC-MS/MS analysis; format: ADME, organism-based; conditions: in vivo
MOLT-4 = experiment: Antiproliferative activity against human MOLT-4 cells incubated for 72 hrs by luminescence assay; format: functional, cell-based; conditions: MOLT-4, 72 h
[10] = AUC (0 to infinity) in ICR mouse at 2 mg/kg, iv measured upto 24 hrs by LC-MS/MS analysis; format: ADME, organism-based; set-up: time < 24 hrs, dose 2 mg/kg, route iv; conditions: in vivo
TMD8 [11] = experiment: Induction of apoptosis in human TMD8 cells assessed as early apoptotic cells at 1 uM incubated for 24 hrs by Annexin V-FITC/PI staining based flow cytometric analysis (reference value: 0.24%); format: functional
SK-OV-3 = experiment: Antiproliferative activity against human SK-OV-3 cells incubated for 72 hrs by luminescence assay; format: functional, cell-based; conditions: SK-OV-3, 72 h
Rec1 = experiment: Antiproliferative activity against human REC1 cells incubated for 72 hrs by luminescence assay; format: functional, cell-based; conditions: Rec1, 72 h
[12] = Metabolic stability in monkey liver microsomes assessed as intrinsic clearance measured for 75 to 130 mins by LC-MS/MS analysis; format: ADME, Macaca fascicularis, Microsome; conditions: cynomolgus monkey, time 75-130 min, read-out: CLH
TMD8 [13] = experiment: Induction of apoptosis in human TMD8 cells assessed as early apoptotic cells at 0.5 uM incubated for 24 hrs by Annexin V-FITC/PI staining based flow cytometric analysis (reference value: 0.24%); format: functional
[14] = Cmax in CB.17 SCID mouse xenografted with human TMD8 cells at 50 mg/kg, po measured upto 24 hrs by LC-MS/MS analysis; format: ADME, organism-based; set-up: dose 50 mg/kg, time < 24 hrs, route po; conditions: in vivo
[15] = Cmax in CB.17 SCID mouse xenografted with human TMD8 cells at 25 mg/kg, po measured upto 24 hrs by LC-MS/MS analysis; format: ADME, organism-based; set-up: dose 25 mg/kg, time < 24 hrs, route po; conditions: in vivo
[16] = Oral bioavailability in ICR mouse at 25 mg/kg measured upto 24 hrs by LC-MS/MS analysis; format: ADME, organism-based; conditions: in vivo
HCT-116 = experiment: Antiproliferative activity against human HCT-116 cells incubated for 72 hrs by luminescence assay; format: functional, cell-based; conditions: HCT-116, 72 h
[17] = Metabolic stability in human liver microsomes assessed as half life measured for 75 to 130 mins by LC-MS/MS analysis; format: ADME, Microsome; conditions: liver microsomes, time 75-130 min
[18] = Half life in ICR mouse at 25 mg/kg, po measured upto 24 hrs by LC-MS/MS analysis; format: ADME, organism-based; conditions: in vivo
[19] = AUC (0 to infinity) in CB.17 SCID mouse xenografted with human TMD8 cells at 25 mg/kg, po measured upto 24 hrs by LC-MS/MS analysis; format: ADME, organism-based; set-up: time < 24 hrs, dose 25 mg/kg, route po; conditions: in vivo
[20] = MRT in ICR mouse at 25 mg/kg, po measured upto 24 hrs by LC-MS/MS analysis; format: ADME, organism-based; conditions: in vivo
TMD8 [21] = experiment: Induction of apoptosis in human TMD8 cells assessed as late apoptotic cells at 0.5 uM incubated for 24 hrs by Annexin V-FITC/PI staining based flow cytometric analysis (reference value: 1.54%); format: functional
TMD8 [22] = experiment: Induction of apoptosis in human TMD8 cells assessed as necrotic cells at 1 uM incubated for 24 hrs by Annexin V-FITC/PI staining based flow cytometric analysis (reference value: 1.85%); format: functional
A549 = experiment: Antiproliferative activity against human A549 cells incubated for 72 hrs by luminescence assay; format: functional, cell-based; conditions: A549, 72 h
[23] = AUC (0 to t) in CB.17 SCID mouse xenografted with human TMD8 cells at 25 mg/kg, po measured upto 24 hrs by LC-MS/MS analysis; format: ADME, organism-based; set-up: dose 25 mg/kg, time < 24 hrs, route po; conditions: in vivo
[24] = AUC (0 to t) in CB.17 SCID mouse xenografted with human TMD8 cells at 100 mg/kg, po measured upto 24 hrs by LC-MS/MS analysis; format: ADME, organism-based; set-up: dose 100 mg/kg, time < 24 hrs, route po; conditions: in vivo
SU-DHL-2 = experiment: Antiproliferative activity against human SUDHL2 cells incubated for 72 hrs by luminescence assay; format: functional, cell-based; conditions: SU-DHL-2, 72 h
Histone deacetylase 8 = Histone deacetylase 8 (Homo sapiens, UniProt Q9BY41); experiment: Inhibition of HDAC8 (unknown origin) using RHK(Ac)K(Ac)AMC fluorogenic peptide as substrate preincubated for 10 mins followed by substrate addition for 2 hr in presence of ATP by fluoroscence based assay
DOHH-2 = experiment: Antiproliferative activity against human DOHH-2 cells incubated for 72 hrs by luminescence assay; format: functional, cell-based; conditions: DOHH-2, 72 h
MDA-MB-231 = experiment: Antiproliferative activity against human MDA-MB-231 cells assessed as remaining cell activity at 2 uM incubated for 72 hrs by luminescence assay relative to control; format: functional
TMD8 [25] = experiment: Antiproliferative activity against human TMD8 cells assessed as remaining cell activity at 2 uM incubated for 72 hrs by luminescence assay relative to control; format: functional
TMD8 [26] = experiment: Induction of apoptosis in human TMD8 cells assessed as early apoptotic cells at 2 uM incubated for 24 hrs by Annexin V-FITC/PI staining based flow cytometric analysis (reference value: 0.24%); format: functional
[27] = Metabolic stability in rat liver microsomes assessed as intrinsic clearance measured for 75 to 130 mins by LC-MS/MS analysis; format: ADME, Microsome; conditions: time 75-130 min, read-out: CLH
CWR22R = experiment: Antiproliferative activity against human 22Rv1 cells incubated for 72 hrs by luminescence assay; format: functional, cell-based; conditions: 22Rv1, 72 h

Histone deacetylase 8, sequence (Q9BY41 whole entry): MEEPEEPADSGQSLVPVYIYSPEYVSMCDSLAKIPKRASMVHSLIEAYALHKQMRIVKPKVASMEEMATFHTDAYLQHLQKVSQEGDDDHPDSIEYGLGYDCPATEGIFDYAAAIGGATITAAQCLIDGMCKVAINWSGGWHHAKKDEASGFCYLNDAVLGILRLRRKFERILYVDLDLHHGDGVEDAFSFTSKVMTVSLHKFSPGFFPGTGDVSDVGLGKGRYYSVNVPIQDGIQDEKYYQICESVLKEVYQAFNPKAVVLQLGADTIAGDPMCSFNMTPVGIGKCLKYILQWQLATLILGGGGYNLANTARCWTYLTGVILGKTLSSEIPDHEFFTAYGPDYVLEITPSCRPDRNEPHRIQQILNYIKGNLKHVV

With `Nc1ccccc1NC(=O)c1ccc(CN2CCC/C(=C\c3ccccn3)C2=O)cc1` the half-life [1] was 1.63 h, the solubility [2] was 5 ng/mL (≈ 0.0121 µM) and the IC50 (NCI-H441) was 2620 nM. For the same compound, the microsomal CLint [3] was 1.7 µL/min/mg, the IC50 (786-0) was 600 nM and the microsomal CLint [4] was 1.32 µL/min/mg. The IC50 (CCRF-CEM) was 480 nM, the Cmax [5] was 10700 ng/mL and the IC50 (HT-29) was 2410 nM. For the same compound, the Cmax [6] was 3100 ng/mL, the MRT inf [7] was 0.821 h and the MRT inf [8] was 1.51 h. For the same compound, the MRT inf [9] was 0.805 h, the IC50 (MOLT-4) was 380 nM and the AUC(0-inf) [10] was 1040 ng·h/mL. It also gave an Activity (TMD8 [11]) of 1.03%, an IC50 (SK-OV-3) of 3170 nM and an IC50 (Rec1) of 330 nM. It also gave a microsomal CLint [12] of 14.1 µL/min/mg, an Activity (TMD8 [13]) of 0.34% and a Cmax [14] of 14700 ng/mL. It also gave a Cmax [15] of 1700 ng/mL, a bioavailability [16] of 39.9% and an IC50 (HCT-116) of 1160 nM. For the same compound, the half-life [17] was 13.3 h, the half-life [18] was 4.4 h and the AUC(0-inf) [19] was 1230 ng·h/mL. It also gave an MRT [20] of 2.6 h, an Activity (TMD8 [21]) of 1.59% and an Activity (TMD8 [22]) of 3.64%. The IC50 (A549) was 2850 nM, the AUC(0-t) at 24 h [23] was 1220 ng·h/mL and the AUC(0-t) at 24 h [24] was 9740 ng·h/mL. For the same compound, the IC50 (SU-DHL-2) was 510 nM, the IC50 (Histone deacetylase 8) was greater than 10000 nM and the IC50 (DOHH-2) was 390 nM. For the same compound, the Activity (MDA-MB-231) was 64.94%, the Activity (TMD8 [25]) was 2.32% and the Activity (TMD8 [26]) was 10.3%. The microsomal CLint [27] was 13.2 µL/min/mg and the IC50 (CWR22R) was 1140 nM.
